In brackets after ≈: the same amount, converted by molar mass. Some results are limits rather than exact numbers.

This is an account of results in ChEMBL document CHEMBL5532639, “Heterocyclic pyrimidine derivatives as promising antibacterial agents” (Eur J Med Chem, 2023).

Assay [1] deals with Salmonella typhimurium. Put plainly: Antibacterial activity against Salmonella typhimurium DT104 assessed as reduction in bacterial growth inhibition measured after 24 hrs by Mueller Hinton Agar dilution method. The class given is functional, Salmonella enterica subsp. enterica serovar Typhimurium. Particulars: Salmonella enterica.
The test system of assay [2] is Vibrio parahaemolyticus. Description: Antibacterial activity against Vibrio parahaemolyticus assessed as reduction in bacterial growth inhibition measured after 24 hrs by Mueller Hinton Agar dilution method. Format: functional.
Assay [3] deals with Salmonella enterica subsp. enterica serovar Paratyphi B. Description: Antibacterial activity against Salmonella paratyphi B CICC 21495 assessed as reduction in […]. Format: functional. Particulars: time lower 48 hrs.
Assay [4] has as its system Edwardsiella tarda. Description: Antimicrobial activity against Edwardsiella tarda assessed as inhibition of microbial growth incubated for 18 hrs by CLSI protocol based Mueller-Hinton broth assay. Format: functional.
Assay [5] deals with Vibrio cholerae. Put plainly: Antibacterial activity against Vibrio cholerae assessed as inhibition of bacterial growth incubated for 24 hrs by broth microdilution method. The class given is functional.
In assay [6] the test system is Staphylococcus aureus. Description: Antimicrobial activity against Staphylococcus aureus assessed as inhibition of microbial growth incubated for 18 hrs by CLSI protocol based Mueller-Hinton broth assay. The class given is functional.
Assay [7] has as its system Escherichia coli. Put plainly: Antimicrobial activity against Escherichia coli assessed as inhibition of microbial growth incubated for 18 hrs by CLSI protocol based Mueller-Hinton broth assay. Format: functional.
Assay [8] deals with Vibrio cholerae. Put plainly: Antibacterial activity against Vibrio cholerae measured after 18 to 20 hrs by broth microdilution method. Format: functional. The settings on record: time 18-20 hrs.
For assay [9], the system named is Enterococcus faecalis. Description: Antimicrobial activity against Enterococcus faecalis assessed as inhibition of microbial growth incubated for 18 hrs by CLSI protocol based Mueller-Hinton broth assay. The class given is functional.
In assay [10] the test system is Salmonella typhimurium. Description: Antimicrobial activity against Salmonella typhimurium DT104 assessed as inhibition of microbial growth incubated for 18 hrs by CLSI protocol based Mueller-Hinton broth assay. The settings on record: Salmonella enterica. The class given is functional, Salmonella enterica subsp. enterica serovar Typhimurium.
The subject of assay [11] is Pseudomonas aeruginosa. Put plainly: Antimicrobial activity against Pseudomonas aeruginosa assessed as inhibition of microbial growth incubated for 18 hrs by CLSI protocol based Mueller-Hinton broth assay. The class given is functional.
Assay [12] relates to Klebsiella pneumoniae. Description: Antimicrobial activity against Klebsiella pneumoniae assessed as inhibition of microbial growth incubated for 18 hrs by CLSI protocol based Mueller-Hinton broth assay. The class given is functional.
Assay [13] relates to Staphylococcus epidermidis. Description: Antimicrobial activity against Staphylococcus epidermidis assessed as inhibition of microbial growth incubated for 18 hrs by CLSI protocol based Mueller-Hinton broth assay. The class given is functional.
Assay [14] relates to Salmonella enterica. Put plainly: Antimicrobial activity against Salmonella enterica assessed as inhibition of microbial growth incubated for 18 hrs by CLSI protocol based Mueller-Hinton broth assay. Format: functional.
For assay [15], the system named is Aeromonas hydrophila. Description: Antibacterial activity against Aeromonas hydrophila assessed as inhibition of microbial growth incubated for 24 hrs by CLSI protocol based Mueller-Hinton broth assay. The class given is functional.
Assay [16] deals with Vibrio cholerae. Put plainly: Antibacterial activity against Vibrio cholerae assessed as reduction in bacterial growth measured after 18 to 20 hrs by broth microdilution method. The class given is functional. The settings on record: time 18-20 hrs.
Assay [17] deals with Bacillus subtilis. Put plainly: Antibacterial activity against Bacillus subtilis assessed as reduction in bacterial growth incubated for 24 hrs by CLSI protocol based Mueller-Hinton broth assay. The class given is functional.
The test system of assay [18] is Shigella sonnei. Description: Antibacterial activity against Shigella sonnei assessed as inhibition of bacterial growth measured after 18 to 20 hrs by broth microdilution method. Format: functional. Particulars: time 18-20 hrs.
For assay [19], the system named is Shigella boydii. Description: Antibacterial activity against Shigella boydii assessed as inhibition of bacterial growth measured after 18 to 20 hrs by broth microdilution method. Format: functional. The settings on record: time 18-20 hrs.
Assay [20] concerns Plesiomonas shigelloides. Put plainly: Antibacterial activity against Plesiomonas shigelloides assessed as inhibition of bacterial growth measured after 18 to 20 hrs by broth microdilution method. The class given is functional. Particulars: time 18-20 hrs.
Assay [21] concerns Providencia rettgeri. Put plainly: Antibacterial activity against Providencia rettgeri assessed as bacterial growth inhibition incubated for 18 hrs by CLSI protocol based Mueller-Hinton broth assay. Format: functional.
Assay [22] concerns Shigella flexneri. Description: Antibacterial activity against Shigella flexneri assessed as inhibition of bacterial growth incubated for 24 hrs by broth microdilution method. Format: functional.
The test system of assay [23] is Proteus vulgaris. Description: Antimicrobial activity against Proteus vulgaris assessed as microbial growth inhibition incubated for 24 hrs by broth microdilution method. The class given is functional.
The subject of assay [24] is Enterobacter sp. Description: Antibacterial activity against Enterobacter sp. assessed as inhibition of bacterial growth. Format: functional.
In assay [25] the test system is Morganella morganii. Put plainly: Antibacterial activity against Morganella morganii UM869 incubated for 16 to 18 hrs by broth microdilution method. The class given is functional. The settings on record: time 16-18 hrs.
The test system of assay [26] is Citrobacter freundii. Put plainly: Antibacterial activity against multidrug-resistant Citrobacter freundii assessed as bacterial growth inhibition incubated for 20 to 22 hrs by CLSI based analysis. Format: functional. Particulars: time 20-22 hrs.
Assay [27] relates to Morganella morganii. Put plainly: Antibacterial activity against Morganella morganii UM573 assessed as bacterial growth inhibition incubated for 20 to 22 hrs by CLSI based analysis. The class given is functional. Particulars: time 20-22 hrs.
The subject of assay [28] is Salmonella paratyphi. Put plainly: Antibacterial activity against Salmonella paratyphi A CICC 21501 incubated overnight by standard microtiter dilution method. Format: functional, Salmonella enterica subsp. enterica serovar Paratyphi A. The settings on record: Salmonella enterica.
The test system of assay [29] is Bacillus subtilis. Description: Antibacterial activity against Bacillus subtilis ATCC 465 assessed as reduction in bacterial growth measured after 24 hrs by Mueller-Hinton broth assay. Format: functional.
Assay [30] deals with Pseudomonas aeruginosa. Put plainly: Antibacterial activity against Pseudomonas aeruginosa ATCC 85327 assessed as reduction in bacterial growth measured after 24 hrs by Mueller-Hinton broth assay. The class given is functional.
For assay [31], the system named is Staphylococcus aureus. Put plainly: microbe, parasite or virus in culture. The settings on record: ATCC 25923, 24 h.
Description: Antibacterial activity against Staphylococcus aureus ATCC 25923 assessed as reduction in bacterial growth measured after 24 hrs by Mueller-Hinton broth assay
Assay [32] concerns Escherichia coli. Put plainly: microbe, parasite or virus in culture. The settings on record: ATCC 25922, 24 h.
Description: Antibacterial activity against Escherichia coli ATCC 25922 assessed as reduction in bacterial growth measured after 24 hrs by Mueller-Hinton broth assay
In assay [33] the test system is Enterococcus raffinosus. Put plainly: Antibacterial activity against Enterococcus raffinosus assessed as bacterial growth inhibition incubated for 24 hrs by CLSI protocol based Mueller-Hinton broth assay. Format: functional.
The test system of assay [34] is Staphylococcus aureus. Description: Antibacterial activity against Staphylococcus aureus assessed as bacterial growth inhibition incubated for 24 hrs by CLSI protocol based Mueller-Hinton broth assay. Format: functional.
Assay [35] concerns Escherichia coli. Put plainly: Antibacterial activity against Escherichia coli assessed as reduction in bacterial growth incubated for 16 to 20 hrs by Mueller-Hinton broth based two-fold serial dilution method. Particulars: time 16-20 hrs. Format: functional.
In assay [36] the test system is Streptococcus pyogenes. Description: Antibacterial activity against Streptococcus pyogenes assessed as reduction in microbial growth incubated for 24 hrs by broth micro-dilution method. The class given is functional.
For assay [37], the system named is Pseudomonas aeruginosa. Description: Antibacterial activity against Pseudomonas aeruginosa assessed as inhibition of microbial growth by broth micro-dilution method. Format: functional.
Assay [38] has as its system Escherichia coli. Put plainly: Antibacterial activity against Escherichia coli assessed as inhibition of microbial growth by broth micro-dilution method. The class given is functional.
Assay [39] concerns Staphylococcus aureus. Put plainly: Antibacterial activity against Staphylococcus aureus assessed as inhibition of microbial growth by broth micro-dilution method. Format: functional.
Assay [40] relates to Streptococcus pyogenes. Put plainly: Antibacterial activity against Streptococcus pyogenes assessed as inhibition of microbial growth by broth micro-dilution method. The class given is functional.
Assay [41] relates to Escherichia coli. Description: Antibacterial activity against Escherichia coli assessed as reduction in bacterial growth by broth microdilution method. The class given is functional.
The subject of assay [42] is Escherichia coli. Put plainly: Antibacterial activity Escherichia coli assessed as reduction in bacterial growth. Format: functional.
The subject of assay [43] is Pseudomonas aeruginosa. Description: Antibacterial activity against Pseudomonas aeruginosa assessed as reduction in microbial growth after 18 hrs by MTT based broth dilution method. Format: functional.
Assay [44] relates to Klebsiella pneumoniae. Description: Antibacterial activity against Klebsiella pneumoniae assessed as reduction in bacterial growth by broth microdilution method. Format: functional.
The subject of assay [45] is Bacillus subtilis. Description: Antibacterial activity against Bacillus subtilis assessed as reduction in bacterial cell viability by well plate method. Format: functional.
For assay [46], the system named is Staphylococcus epidermidis. Description: Antibacterial activity against Staphylococcus epidermidis assessed as reduction in microbial growth. Format: functional.
The test system of assay [47] is Bacillus subtilis. Description: Antibacterial activity against Bacillus subtilis assessed as zone of inhibition at 50 microg/ml by cup plate analysis. Format: functional. The settings on record: read-out: IZ.
The test system of assay [48] is Bacillus pumilus. Description: Antibacterial activity against Bacillus pumilus assessed as zone of inhibition at 50 microg/ml by cup plate analysis. Particulars: read-out: IZ. Format: functional.
The test system of assay [49] is Escherichia coli. Put plainly: Antibacterial activity against Escherichia coli assessed as zone of inhibition at 50 microg/ml by cup plate analysis. The class given is functional. Particulars: read-out: IZ.
Assay [50] relates to Proteus vulgaris. Put plainly: Antibacterial activity against Proteus vulgaris assessed as zone of inhibition at 50 microg/ml by cup plate analysis. Format: functional. The settings on record: read-out: IZ.

Consider `COc1cc(Cc2cnc(N)nc2N)cc(OC)c1OC` [TRIMETHOPRIM], for which the MIC in assay [1] was > 5000 µg/mL; in [2], 2.44 µg/mL (≈ 8.4 µM); in assay [3], 9.76 µg/mL (≈ 33.6 µM); in [4], 312 µg/mL; in assay [5] it was 39.1 µg/mL (≈ 135 µM); in assay [6], > 5000 µg/mL. Also, the MIC in assay [7] turned out to be 19.5 µg/mL; in assay [8] it was 1.22 µg/mL (≈ 4.2 µM); in assay [9], 78.1 µg/mL; in [10] it was 4.88 µg/mL; in assay [11] it was 5000 µg/mL; in [12] it was 5000 µg/mL. Besides, the MIC in assay [13] was > 5000 µg/mL; in assay [14] it was 4.88 µg/mL; in assay [15], 1250 µg/mL; in assay [16], 5000 µg/mL (≈ 17200 µM); in assay [17], 5000 µg/mL (≈ 17200 µM); in [18], 9.76 µg/mL (≈ 33.6 µM). In addition, the MIC in assay [19] came to 9.76 µg/mL (≈ 33.6 µM); in [20], 4.88 µg/mL (≈ 16.8 µM); in assay [21], 2500 µg/mL (≈ 8610 µM); in assay [22] it was 156 µg/mL (≈ 538 µM); in [23], 156 µg/mL (≈ 538 µM); in assay [24], 156 µg/mL (≈ 538 µM). In addition, the MIC in assay [25] was 156 µg/mL (≈ 538 µM); in assay [26] it was 19.5 µg/mL (≈ 67.3 µM); in assay [27], 156 µg/mL (≈ 538 µM); in assay [28], 156 µg/mL (≈ 538 µM).
With `N#Cc1nc2[nH]c(=O)[nH]c(=O)c2c(-c2ccc(Cl)cc2)c1N`, the MIC in assay [29] was 8 µg/mL (≈ 25.5 µM); in [30], 512 µg/mL (≈ 1630 µM); in assay [31], 2 µg/mL (≈ 6.38 µM); in assay [32] it was 512 µg/mL (≈ 1630 µM).
`COc1ccc(-c2nc(-c3ccccc3)nc3[nH]nc(N)c23)cc1`: the MIC is 14.2 µg/mL (≈ 44.7 µM) in [33] and 4.2 µg/mL (≈ 13.2 µM) in [34].
`Cc1ccc(-c2c(N)c(C#N)nc3[nH]c(=O)[nH]c(=O)c23)cc1`: the results for the MIC in assay [29], in assay [31] and in assay [32] were 2 µg/mL (≈ 6.82 µM), 32 µg/mL (≈ 109 µM) and 512 µg/mL (≈ 1750 µM), respectively.
As to `O=C(O)c1cn(C2CC2)c2cc(N3CCNCC3)c(F)cc2c1=O` [CIPROFLOXACIN], the MIC in assay [35] amounted to 25 µg/mL (≈ 75.4 µM); in assay [36], 12.5 µg/mL; in assay [37], 200 µg/mL; in [38], 25 µg/mL; in assay [39], 50 µg/mL; in assay [40], 50 µg/mL. Moreover, the MIC in [41] turned out to be 25 µg/mL (≈ 75.4 µM); in assay [42], 22 µg/mL (≈ 66.4 µM); in assay [43] it was 22 µg/mL; in [44], 22 µg/mL (≈ 66.4 µM); in assay [45], 24 µg/mL (≈ 72.4 µM); in assay [46], 22 µg/mL.
As for `CN(C)c1ccc(-c2cc(-c3ccsc3)nc(N)n2)cc1`, the zone of inhibition at 50 µg/mL in assay [47] was 15 mm; in [48] it was 12 mm; in assay [49], 11 mm; in assay [50], 12 mm.
